For one series, the target named is T1, PDE4B2 (Homo sapiens, UniProt Q07343).
T1 construct: expressed in transfected cells; host or cells: HEK293
The series can be described thus: PDE activity two-step radioassay, PDE4B2 lysate. It is filed as biochemical. The following applies: for IC50: PDE4B2 from transfected HEK293 lysate, cAMP hydrolysis, n = 3. As to the method: (§1) Expression plasmids encoding human PDE4 were as previously described by us [[27,28]]. The plasmids were purified from Escherichia coli using the Maxi-prep system (Qiagen, UK). For transient transfections, HEK293 cells were seeded at a 1:3 ratio into culture flasks 24 h before transfection so that cells were ~60% confluent by the time of transfection. Transfections were carried out using PolyFect® transfection reagent (Qiagen, UK) in accordance with manufacturer's instructions.
(§2) Samples were then frozen on solid CO2, thawed and then manually homogenised, followed by passage through a 26-gauge needle several times to ensure complete cell lysis. Cells were centrifuged at 13,000 rpm for 10 min to remove any unbroken cells, and the resulting supernatant was frozen in solid CO2 and stored at −80 °C until required. For experimentation, the protein concentration of whole-cell lysate from transfected and mock-transfected (vector only) cells was equalised (typically to 1 μg/μl). Protein concentration was determined through Bradford Assay using bovine serum albumin as standard.
PDE activity was determined using a two-step radioassay procedure as described previously. Activities for each PDE subtype were related to a non-drug treated sample (100% control) over an increasing dose of the indicated compounds. IC50 values were calculated using.

The test system of series [1] is SH-SY5Y cells stably expressing Epac1-camps. The series is described as follows: FRET imaging of cAMP with Epac1-camps biosensor. It counts as cell-based. The settings on record: added after forskolin 5 μM. On the procedure: HEK293 cells were maintained in DMEM containing 10% (v/v) FBS, 2 mM L-glutamine and 1% penicillin/streptomycin. SH-SY5Y cells were maintained in DMEM:F12 (1:1) containing 10% (v/v) FBS, 2 mM L-glutamine and 1% penicillin/streptomycin. For FRET analysis SH-SY5Y cells stably expressing Epac1-camps under G418 selection (500 μg/ml) were seeded onto 22 mm round glass coverslips and maintained in a 6 well plate 24 h prior to use.
FRET imaging experiments were performed on SH-SY5Y-Epac1-camps stables. Cells were maintained at room temperature in DPBS (Invitrogen, UK), with added CaCl2 and MgCl2, and imaged on an inverted microscope (Olympus IX71) with a PlanApoN, 60X, NA 1.42 oil, 0.17/FN 26.5, objective (Japan). The microscope was equipped with a CCD camera (cool SNAP HQ monochrome, Photometrics), and a beam-splitter optical device (Dual-channel simultaneous-imaging system, DV^2 mag biosystem (ET-04-EM)). Imaging acquisition and analysis software used was Meta imaging series 7.1, Metafluor, and processed using ImageJ (http://rsb.info.nih.gov/ij/). FRET changes were measured as changes in the background-subtracted 480/545-nm fluorescence emission intensity on excitation at 430 nm and expressed as either R/R0, where R is the ratio at time t and R0 is the ratio at time = 0 s, or ΔR/R0, where ΔR = R − R0. Values are expressed as the mean ± SEM.

For the next series, the system named is SH-SY5Y cells. The series can be described thus: Hsp20 phosphorylation assay (western blot, phospho-serine 16). It counts as cell-based. The following applies: for Hsp20 phosphorylation (serine 16): rolipram 10 μM, moexipril, 7, 8 at 50 μM, 0.5, 1, 2 h. As to the method:
Compounds were diluted in media and added to cells for 0.5, 1 and 2 h prior to harvesting using 3T3 lysis buffer (1% Triton X-100, 50 mM Hepes, pH 7.2, 10 mM EDTA and 100 mM NaH2PO4) supplemented with protease inhibitor Mini-Complete (Roche) and phosphatase inhibitor PHOS-stop (Roche, UK). Hsp20 expression was analysed using standard SDS-PAGE and Western Blotting techniques using the phospho-Hsp20 antibody (ab58522 Abcam, UK) and alpha-tubulin-HRP antibody (ab40742 Abcam, UK) as the loading control. Western blotting for PDE4s was undertaken using antibodies previously described by us.

For series [2] the following is noted: cited from earlier work; for brain uptake: ref not given.
Series [3] is described as follows: Colloidal aggregation by dynamic light scattering. It counts as physicochemical.
The target of a further series is T2, PDE8A (Homo sapiens, UniProt O60658).
T2 construct: expressed in transfected cells; host or cells: HEK293
T2 sequence (O60658 whole entry, species assumed): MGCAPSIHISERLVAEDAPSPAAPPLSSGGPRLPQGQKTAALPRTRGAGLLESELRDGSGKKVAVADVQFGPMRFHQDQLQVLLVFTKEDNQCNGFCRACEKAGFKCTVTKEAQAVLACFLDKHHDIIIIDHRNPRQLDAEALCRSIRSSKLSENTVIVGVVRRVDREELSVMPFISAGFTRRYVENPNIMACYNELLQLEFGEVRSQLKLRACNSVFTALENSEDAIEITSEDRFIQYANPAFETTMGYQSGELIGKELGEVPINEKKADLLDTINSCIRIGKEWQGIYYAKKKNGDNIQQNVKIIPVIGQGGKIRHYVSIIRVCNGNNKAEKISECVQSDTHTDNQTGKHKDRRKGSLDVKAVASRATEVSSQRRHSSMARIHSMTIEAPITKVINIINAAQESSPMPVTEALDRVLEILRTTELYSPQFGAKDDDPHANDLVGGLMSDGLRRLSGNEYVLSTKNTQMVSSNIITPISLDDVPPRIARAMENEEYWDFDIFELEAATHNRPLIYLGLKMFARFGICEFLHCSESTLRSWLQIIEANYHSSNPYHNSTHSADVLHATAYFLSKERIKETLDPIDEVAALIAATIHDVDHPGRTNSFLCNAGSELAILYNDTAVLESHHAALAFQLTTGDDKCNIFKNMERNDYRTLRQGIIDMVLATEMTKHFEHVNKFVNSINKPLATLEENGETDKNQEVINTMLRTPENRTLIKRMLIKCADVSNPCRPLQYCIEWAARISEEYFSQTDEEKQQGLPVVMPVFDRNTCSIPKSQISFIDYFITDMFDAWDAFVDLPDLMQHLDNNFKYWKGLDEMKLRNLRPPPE
The series can be described thus: PDE activity two-step radioassay, PDE8A lysate. The following applies: dose response, Fig. 3C. It is filed as biochemical. As to the method: as §2, with “Cells (~90–100% confluent) were transfected for 48 h with cDNA encoding PDE4B2, PDE4A5, PDE4D5, PDE8A and PDE5, washed with PBS and harvested by using a cell scraper in KHEM buffer (50 mM KCl, 50 mM HEPES; pH 7.2, 10 mM EGTA, 1.92 mM MgCl2, 1 mM dithiothreitol (DTT)) supplemented with protease inhibitor Mini-Complete (Roche, UK). Samples” for “Samples”
(§3) PDE activity was determined using a two-step radioassay procedure as described previously. Activities for each PDE subtype were related to a non-drug treated sample (100% control) over an increasing dose of the indicated compounds. IC50 values were calculated using. In all cases, the transfected PDE accounted for over 97% of the total PDE activity when compared with the untransfected control lysates.

On the set-up of series [4]: method as in PMID 3508548, PMID 2999531. The following applies: use in hypertension; cited from earlier work.
The next series deals with T3, PDE5 (Homo sapiens, UniProt O76074).
T3 construct: expressed in transfected cells; host or cells: HEK293
The series is described as follows: PDE activity two-step radioassay, PDE5 lysate. It counts as biochemical. The following applies: dose response, Fig. 3C. On the procedure:
as §2, with “Cells (~90–100% confluent) were transfected for 48 h with cDNA encoding PDE4B2, PDE4A5, PDE4D5, PDE8A and PDE5, washed with PBS and harvested by using a cell scraper in KHEM buffer (50 mM KCl, 50 mM HEPES; pH 7.2, 10 mM EGTA, 1.92 mM MgCl2, 1 mM dithiothreitol (DTT)) supplemented with protease inhibitor Mini-Complete (Roche, UK). Samples” for “Samples”
as §3

On the set-up of series [5]: method as in printed. The settings on record: oral dose of 15 mg, ref not given, cited from earlier work.
Another series relates to porcine serum ACE. Also on record: method as in PMID 3508548, PMID 2999531. The following applies: vs porcine serum ACE; cited from earlier work.
The target of another series is T4, PDE4D5 (Homo sapiens, UniProt Q08499).
T4 construct: expressed in transfected cells; host or cells: HEK293
T4 sequence (Q08499 1-745 isoform Q08499-6): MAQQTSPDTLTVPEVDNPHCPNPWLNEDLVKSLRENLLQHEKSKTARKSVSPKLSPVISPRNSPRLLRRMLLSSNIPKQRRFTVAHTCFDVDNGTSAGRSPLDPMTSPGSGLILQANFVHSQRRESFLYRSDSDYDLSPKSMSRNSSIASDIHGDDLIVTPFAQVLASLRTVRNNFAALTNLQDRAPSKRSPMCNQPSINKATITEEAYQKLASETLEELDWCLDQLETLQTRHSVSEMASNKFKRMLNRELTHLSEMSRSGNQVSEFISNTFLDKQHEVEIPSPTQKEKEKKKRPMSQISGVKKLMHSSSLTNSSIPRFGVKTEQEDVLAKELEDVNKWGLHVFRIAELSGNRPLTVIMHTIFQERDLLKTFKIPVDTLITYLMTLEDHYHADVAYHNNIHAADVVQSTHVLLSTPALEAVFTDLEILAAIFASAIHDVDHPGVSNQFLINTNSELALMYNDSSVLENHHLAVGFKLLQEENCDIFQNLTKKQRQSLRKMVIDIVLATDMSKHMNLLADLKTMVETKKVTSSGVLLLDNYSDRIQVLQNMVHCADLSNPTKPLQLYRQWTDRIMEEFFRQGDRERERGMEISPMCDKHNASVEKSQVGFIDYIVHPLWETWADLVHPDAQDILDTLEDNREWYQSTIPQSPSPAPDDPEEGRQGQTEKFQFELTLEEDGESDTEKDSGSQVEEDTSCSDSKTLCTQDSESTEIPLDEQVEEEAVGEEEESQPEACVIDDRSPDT
The series can be described thus: PDE activity two-step radioassay, PDE4D5 lysate. It is filed as biochemical. As to the method:
as §1
Cells (~90–100% confluent) were transfected for 48 h with cDNA encoding PDE4B2, PDE4A5, PDE4D5, PDE8A and PDE5, washed with PBS and harvested by using a cell scraper in KHEM buffer (50 mM KCl, 50 mM HEPES; pH 7.2, 10 mM EGTA, 1.92 mM MgCl2, 1 mM dithiothreitol (DTT)) supplemented with protease inhibitor Mini-Complete (Roche, UK). Samples were then frozen on solid CO2, thawed and then manually homogenised, followed by passage through a 26-gauge needle several times to ensure complete cell lysis. Cells were centrifuged at 13,000 rpm for 10 min to remove any unbroken cells, and the resulting supernatant was frozen in solid CO2 and stored at −80 °C until required. […] Protein concentration was determined through Bradford Assay using bovine serum albumin as standard.
PDE activity was determined using a two-step radioassay procedure as described previously. […] IC50 values were calculated using. […]

For the next series, the target named is beta-lactamase (Escherichia coli, UniProt P00811). The series is described as follows: beta-lactamase inhibition (aggregation counter-screen). It counts as biochemical. The following applies: at 10 or 100 μM.
Chain of beta-lactamase (P00811 20-377): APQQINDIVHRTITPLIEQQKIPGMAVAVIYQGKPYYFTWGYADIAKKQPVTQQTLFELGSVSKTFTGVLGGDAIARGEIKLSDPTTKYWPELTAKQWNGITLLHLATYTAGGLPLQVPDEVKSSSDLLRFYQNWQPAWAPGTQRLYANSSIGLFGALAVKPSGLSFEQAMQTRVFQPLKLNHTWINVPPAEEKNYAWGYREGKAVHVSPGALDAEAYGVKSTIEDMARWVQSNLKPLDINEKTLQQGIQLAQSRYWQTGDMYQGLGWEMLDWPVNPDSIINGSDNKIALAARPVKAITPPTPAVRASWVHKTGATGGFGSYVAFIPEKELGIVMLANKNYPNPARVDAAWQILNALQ

Entries after “also recorded” stand apart in the source; their conditions may differ. Like-named read-outs stand apart in the source and are kept apart here.

T1 sequence (Q07343 1-564 isoform Q07343-2): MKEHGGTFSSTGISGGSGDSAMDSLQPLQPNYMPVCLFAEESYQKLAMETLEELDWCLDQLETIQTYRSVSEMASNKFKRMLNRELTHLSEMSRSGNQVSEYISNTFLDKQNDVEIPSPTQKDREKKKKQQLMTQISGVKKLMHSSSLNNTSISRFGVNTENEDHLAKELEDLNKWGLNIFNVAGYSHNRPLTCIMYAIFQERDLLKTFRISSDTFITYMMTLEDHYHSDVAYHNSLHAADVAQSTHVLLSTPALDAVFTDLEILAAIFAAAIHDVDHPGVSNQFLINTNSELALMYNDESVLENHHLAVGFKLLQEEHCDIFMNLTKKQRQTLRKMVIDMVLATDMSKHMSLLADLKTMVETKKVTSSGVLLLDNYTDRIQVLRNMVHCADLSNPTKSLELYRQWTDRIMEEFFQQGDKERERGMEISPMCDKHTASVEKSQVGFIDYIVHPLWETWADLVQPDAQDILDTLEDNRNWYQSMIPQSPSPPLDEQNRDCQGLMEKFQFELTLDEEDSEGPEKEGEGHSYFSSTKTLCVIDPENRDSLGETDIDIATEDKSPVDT

Regarding `COc1cc2c(cc1OC)CN(C(=O)Cn1cnc3ccccc3c1=O)[C@H](C(=O)O)C2` (racemic) [Compound 7], at PDE4B2, 89 µM corresponded to half-maximal inhibition (IC50). In addition, in series [1], the “cellular cAMP increase (FRET ratio change) over forskolin alone” value was “significantly enhanced”. Further, the “Hsp20 phosphorylation (serine 16)” value with SH-SY5Y cells is “induced Hsp20 phosphorylation”.

With `COc1cc2c(cc1OC)CN(C(=O)CCc1c[nH]c3ccccc13)[C@H](C(=O)O)C2` (racemic) [Compound 8], the “fold better IC50 than moexipril” value on PDE4B2 (PDE4B2) came out at 7 fold. Besides, the IC50 on PDE4B2 amounted to 6.9 µM. Besides, the “cellular cAMP increase (FRET ratio change) over forskolin alone” value in [1] is recorded as “significantly enhanced”. Further, in the series on SH-SY5Y cells, the “Hsp20 phosphorylation (serine 16)” value is “induced Hsp20 phosphorylation”.

As to `CCCCCCOC(=O)[C@]1(O)C[C@@H]2O[C@@]1(C)n1c3ccccc3c3c4c(c5c6ccccc6n2c5c31)C(=O)NC4` [KT5720], in the series with SH-SY5Y cells (KT5720 4 μM 20 min before forskolin 10 μM with moexipril 50 μM, 5 min), the “effect on Hsp20 phosphorylation induced by moexipril and forskolin” value is listed as “attenuate”.

Take `COc1ccc([C@]2(C#N)CC[C@@H](C(=O)O)CC2)cc1OC1CCCC1` [cilomilast]: the brain penetration result in series [2] is “limited”.

For the compound `CCOC(=O)[C@H](CCc1ccccc1)N[C@@H](C)C(=O)N1Cc2cc(OC)c(OC)cc2C[C@H]1C(=O)O` [moexipril], in [2], the brain uptake result was “poor uptake by the brain”. Moreover, in series [3], the colloidal aggregation entry was “no particles were observed”. For the same compound, the “activity against PDE8A” value on PDE8A is on record as “no activity”. In series [4], the emetogenic activity entry is listed as “apparently lacking emetogenic activity”. Moreover, the “activity against PDE5” value on PDE5 was “no activity”. Moreover, the Cmax in series [5] (conversion of 25 μg/L, read-out: Cmax) was approximately 50 nM; in series [5] (one PK assessment), 25 ng/mL. Besides, the IC50 at PDE4B2 was 38 µM; in the series on porcine serum ACE it was 0.04 µM; against PDE4D5 (PDE4D5, n = 3) it was 230 µM. At PDE4D5 (PDE4D5 vs PDE4B2), the “fold lower sensitivity to inhibition than PDE4B2” value is on record as 6 fold. Also, the “cellular cAMP increase (FRET ratio change) over forskolin alone” value in [1] is given as “markedly potentiated; also recorded: significantly enhance”. Besides, the “Hsp20 phosphorylation (serine 16)” value in the series on SH-SY5Y cells is reported as “significantly increased”. Also, the inhibition of beta-lactamase result against beta-lactamase is “did not inhibit”.

In the case of `COc1cc2c(cc1OC)CN(C(=O)[C@H](C)N[C@@H](CCc1ccccc1)C(=O)O)[C@H](C(=O)O)C2` [moexiprilat], in [2], the brain uptake entry was “poor uptake by the brain”.

As to `COc1ccc(C2CNC(=O)C2)cc1OC1CCCC1` (stereo not shown) [rolipram], in the series on SH-SY5Y cells, the “Hsp20 phosphorylation (serine 16)” value is “significantly increased”.

The values are drawn from PMC3625111 (Biochemical Pharmacology, 2013).
